pEC50, pKi: −log10 of the molar value. Where two headings read alike, the source gives them in different places.
Tests used:
5-HT2A receptor [1] = target: T1, 5-HT2A receptor (Homo sapiens, UniProt P28223); assay: 5-HT2AR calcium flux activation assay; format: cell-based; parameters: expressed in transfected cells; host or cells: HEK293; settings: for Emax: Max Dose 100000 nM
Method: • 1) For cultured cells (HEK293 cells stably expressing human 5-HT2A receptor), they were first washed twice with pre-warmed DPBS, then an appropriate amount of trypsin was added for digestion at 37°C for 1 minute; an appropriate amount of the culture medium was then added to stop digestion, and 1 mL was taken for counting and vitality determination using Vi-CELL™. • 2) Cells were centrifuged at 1000 rpm for 5 minutes. • 3) The supernatant was gently discarded, being careful not to disturb the cell pellet. • 4) Cells were diluted with the culture medium to 1×10^6 cells/mL (20,000 cells/20 µL) and seeded into 384-well poly-lysine coated cell plates. They were cultured at 37°C under 5% CO2 for 16-20 hours.
• 1) Preparation of 250 mM Probenecid solution: According to the kit instructions, 77 mg of probenecid was added to 1 mL of FLIPR buffer salt solution. Prepared fresh for immediate use. • 2) Preparation of Fluo-4 Direct™ (2×, 8 µM) loading buffer: According to the kit instructions, the required amount of Fluo-4 Direct™ was thawed in advance. 10 mL of FLIPR buffer salt solution and 0.2 mL of 250 mM Probenecid solution were added to each vial. It was vortexed in the dark for >5 minutes. Prepared fresh for immediate use.
• 1) Preparation of control and test compound plates: Compounds were gradient diluted to 10 points using Echo, and 750 nL was transferred to the corresponding compound plate. • 2) 30 µL of assay buffer salt solution was added to the corresponding compound plate, which was then centrifuged at 1000 rpm for 1 minute; • 3) The cell plate prepared the day before was taken from the incubator, and 20 µL of 2× Fluo-4 Direct™ buffer was added to each well, making a total volume of 40 µL. • 4) The plate was incubated in a 5% CO2, 37°C incubator for 50 minutes, then left at room temperature for 10 minutes. • 5) The compound plate, the cell plate, and pipette tips were placed into the instrument; • 6) The FLIPR instrument software was run according to the set program, adding 10 µL of the specified concentrations of test compounds and control compounds to the cell plate, and fluorescence signals were read. After reading, data was exported using the "Max-Min", "Read 1 to 90" method in the software. • 7) Data analysis: Agonist Activation% = (RLU−DMSO)/(HC−DMSO)*100 [formula] • RLU: Relative Light Units, read values 1 to 90; • HC: Average fluorescence signal of the highest concentration point of the agonist; • DMSO: Average fluorescence signal of the DMSO group; • 8) Data was fitted using Prism 5.0.
For agonist: EC50 was fitted using "log(agonist) vs. response -- Variable slope". Table 2: 5-HT2AR Calcium Flux Activation Assay

5-HT2A receptor [2] = target: T1, 5-HT2A receptor; assay: 5-HT2A receptor isotope competition affinity assay; format: binding
Method: A radiolabeled ligand (agonist or antagonist) incubated with receptor protein could form a receptor-ligand complex. An added test compound could compete with the isotopically labeled ligand for the receptor binding, eventually forming a relative steady-state equilibrium. The affinity of the test compound for the receptor was indirectly evaluated by measuring the dissociation of the isotopically labeled ligand from the receptor.
A 100x serial gradient dilution of compounds was prepared in DMSO, starting from 1 mM with 4-fold serial dilutions, resulting in 10 concentration points. Using a pipettor, 1 µL of each gradient concentration of the test compound (final concentration starting at 10 µM, 4-fold serial dilutions, 10 concentration points) was transferred to a 96-well assay plate, to each well of which 49 µL of 5-HT2A receptor protein (102 µg/mL, prepared in an assay buffer: 50 mM Tris-HCl, pH 7.4) had been added in advance (final concentration 5 µg/well). This was followed by the addition of 50 µL of isotopically labeled [^3H]-Ketanserin (2 nM, 2× final concentration, prepared in the assay buffer). The plate was sealed and incubated on a shaker at room temperature for 1 hour. The reaction mixture was filtered through a Unifilter-96 GF/C filter plate pre-treated with 0.3% PEI. The filter plate was washed with a precooled (4°C) assay buffer and then dried in an incubator at 50°C. A scintillation liquid was added, and the plate was read using a MicroBeta2 instrument. The percentage inhibition was calculated using the equation: %Inhibition=(CountHigh Signal Control-CountSample)/(CountHigh Signal Control-CountLow Signal Control)*100. A four-parameter logistic fit was used to calculate the IC50 value. High Signal Control: No compound group (the same volume of DMSO substituted). Low Signal Control: Ketanserin group (non-isotopically labeled, 2× final concentration). Table 1: Results of 5-HT2A receptor isotope competition affinity assay, Ki Values

Mice (strain C57BL/6) [3] = assay: Head-twitch response test in mice; format: in vivo; settings: reflects hallucinogenic effect, Figure 1
Method: (§1) • 1. Assay conditions and materials: • 1.1 Animal source: Mice (strain C57BL/6, purchased from Shanghai Lingchang Biotechnology Co., Ltd., 8-9 weeks old, 20-24 grams, male) • 1.2 Conditions: Temperature (20-25°C), relative humidity (40-70%), light cycle (12-hour light cycle (7:00-19:00)), free access to food and water • 1.3 Marking: Animals were marked on the tail. • 2. Assay procedure:
• A) Adaptation: Starting from the second day after the animals arrived, they were conciliated by stroking and acclimated for seven consecutive days to reduce their stress response. • B) Grouping: One hour before the assay test, animals were placed in the testing room for adaptation. On the test day, animals were randomly grouped according to body weight. Each group contained 12 animals. • C) Assay Dosing: Animal body weight was measured, and compounds were administered according to the group, with a dosing volume of 10 mL/kg for all. • D) Testing: After dosing, animals were placed in transparent observation chambers, and head-twitch behaviors were recorded over 60 minutes. • E) Assay test indicator: Total number of head-twitches within 60 minutes after dosing.

Mice (strain C57BL/6) [4] = assay: Forced swim test in naive mice 7 days after single administration; format: in vivo; settings: compared to vehicle control group, p<0.05, Figure 2
Method: as §1
• A) Adaptation: Starting from the second day after the animals arrived, they were conciliated by stroking and acclimated for seven consecutive days to reduce their stress response. • B) Behavioral test (FST test): Compound and Psilocybin groups (15 animals per group) continued to be housed for 7 days after dosing. On day 7, the Ketamine group (15 animals per group) was dosed 30 minutes before being placed, together with the compound and Psilocybin groups, into forced swim observation chambers for 6 minutes. Immobility time during the last 4 minutes was calculated. • C) Assay test indicator: Immobility time of animals during 2-6 minutes of the forced swim test.

[5] = HEK293 cells stably expressing human 5-HT2A receptor, FLIPR, Fluo-4, read-out: EC50
[6] = HEK293 cells stably expressing human 5-HT2A receptor
[7] = competition with [3H]-Ketanserin, 1 hour, room temperature, read-out: 5-HT2A receptor/Ki

T1 sequence (P28223 whole entry): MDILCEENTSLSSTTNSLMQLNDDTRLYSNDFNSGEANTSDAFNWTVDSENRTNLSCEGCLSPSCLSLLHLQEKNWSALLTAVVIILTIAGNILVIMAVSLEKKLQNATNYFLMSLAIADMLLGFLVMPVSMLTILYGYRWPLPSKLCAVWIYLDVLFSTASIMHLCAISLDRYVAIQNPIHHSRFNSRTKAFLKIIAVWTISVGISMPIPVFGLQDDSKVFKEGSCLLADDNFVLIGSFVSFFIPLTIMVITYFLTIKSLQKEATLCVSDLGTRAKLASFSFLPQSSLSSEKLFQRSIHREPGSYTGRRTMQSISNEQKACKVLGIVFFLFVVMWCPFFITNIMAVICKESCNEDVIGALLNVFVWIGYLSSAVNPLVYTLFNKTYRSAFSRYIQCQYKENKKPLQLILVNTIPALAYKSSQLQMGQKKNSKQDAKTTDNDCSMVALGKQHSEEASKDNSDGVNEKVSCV

Compound | pEC50 (5-HT2A receptor [1]; [5]) | Emax (5-HT2A receptor [1]; [6]) [%] | pKi (5-HT2A receptor [2]; [7]) | other results
Cc1nn(CCCN2CCC(c3c[nH]c4cccc(O)c34)C2)nc1C (racemic) [Compound 127] | 8.40 | 53.4 |  | 
COc1ccccc1CCCN1CCC(c2c[nH]c3cccc(O)c23)C1 (stereo not shown) [Compound 2] | 7.77 | 51.5 | > 7.00 | 
c1ccc2c(C3CCN(CCCc4ncon4)C3)c[nH]c2c1 (stereo not shown) [Compound 49, 3-(1-[3-(1,2,4-oxadiazol-3-yl)propyl]pyrrolidin-3-yl)-1H-indole] | 7.47 | 47.6 | > 7.00 | Total number of head-twitches within 60 minutes after dosing (Mice (strain C57BL/6) [3]; dose 30 mpk): did not cause significant head-twitch behavior
Cc1nonc1CCCN1CCC(c2c[nH]c3ccccc23)C1 (stereo not shown) [Compound 54, 3-(1-(3-(4-methyl-1,2,5-oxadiazol-3-yl)propyl)pyrrolidin-3-yl)-1H-indole] | 7.06 | 46.7 | > 7.00 | 
Oc1cccc2[nH]cc(C3CCN(CCCc4ncsn4)C3)c12 (stereo not shown) [Compound 56] | 8.07 | 67.7 | > 7.00 | 
Cn1cc(CCCN2CCC(c3c[nH]c4cccc(O)c34)C2)cn1 (stereo not shown) [Compound 60] | 7.48 | 29.9 | > 7.00 | 
Cc1nc(C)n(CCCN2CCC(c3c[nH]c4ccccc34)C2)n1 (stereo not shown) [Compound 122, 3-(1-(3-(3,5-dimethyl-1H-1,2,4-triazol-1-yl)propyl)pyrrolidin-3-yl)-1H-indole] | 7.60 | 38.6 | > 7.00 | 
c1ccc2c(C3CCN(CCCn4nccn4)C3)c[nH]c2c1 (stereo not shown) [Compound 125, 3-(1-(3-(2H-1,2,3-triazol-2-yl)propyl)pyrrolidin-3-yl)-1H-indole] | 7.64 | 62.9 | > 7.00 | 
Cc1cnn(CCCN2CCC(c3c[nH]c4ccccc34)C2)n1 (stereo not shown) [Compound 126] | 7.56 | 49.7 |  | 
CC(C)c1cnn(CCCN2CCC(c3c[nH]c4cccc(O)c34)C2)n1 (stereo not shown) [Compound 128] | 8.15 | 63.1 |  | 
Oc1cccc2[nH]cc(C3CCN(CCc4coc5ccccc45)C3)c12 (stereo not shown) [Compound 134] | 7.36 | 68.8 | > 7.00 | 
c1ccc2c(C3CCN(CCc4nnc5ccccn45)C3)c[nH]c2c1 (stereo not shown) [Compound 142, 3-(1-(2-((1,2,4)triazolo(4,3-a)pyridin-3-yl)ethyl)pyrrolidin-3-yl)-1H-indole] |  | 41.9 |  | pKi (5-HT2A receptor [2]): > 7.00; pEC50 (5-HT2A receptor [1]): 7.34
c1ccc2c([C@H]3CCN(CCCc4ncon4)C3)c[nH]c2c1 [Compound 171, (R)-3-(1-[3-(1,2,4-oxadiazol-3-yl)propyl]pyrrolidin-3-yl)-1H-indole] | 7.20 | 40.2 |  | 
Oc1cccc2[nH]cc(C3CCN(CCCn4nccn4)C3)c12 (stereo not shown) [Compound 180, 3-(1-(3-(2H-1,2,3-triazol-2-yl)propyl)pyrrolidin-3-yl)-1H-indol-4-ol] | 8.00 | 59.3 | > 7.00 | Total number of head-twitches within 60 minutes after dosing (Mice (strain C57BL/6) [3]; dose 30 mpk): did not cause significant head-twitch behavior; Immobility time of animals during 2-6 minutes of the forced swim test (Mice (strain C57BL/6) [4]): significantly reduced immobility time
Oc1cccc2[nH]cc([C@@H]3CCN(CCCn4nccn4)C3)c12 [Compound 182, (S)-3-(1-(3-(2H-1,2,3-triazol-2-yl)propyl)pyrrolidin-3-yl)-1H-indol-4-ol] | 7.68 | 57.4 | > 7.00 | Total number of head-twitches within 60 minutes after dosing (Mice (strain C57BL/6) [3]; dose 30 mpk): did not cause significant head-twitch behavior
Oc1cc(F)cc2[nH]cc(C3CCN(CCCn4nccn4)C3)c12 (stereo not shown) [Compound 184, 6-fluoro-3-(1-[3-(2H-1,2,3-triazol-2-yl)propyl]pyrrolidin-3-yl)-1H-indol-4-ol] |  | 52.4 |  | pKi (5-HT2A receptor [2]): > 7.00; pEC50 (5-HT2A receptor [1]): 8.06
Cc1nn(CCCN2CC[C@@H](c3c[nH]c4cccc(O)c34)C2)nc1C [Compound 186, (S)-3-(1-(3-(4,5-dimethyl-2H-1,2,3-triazol-2-yl)propyl)pyrrolidin-3-yl)-1H-indol-4-ol] |  |  | > 7.00 | 
Cc1cnn(CCCN2CCC(c3c[nH]c4cccc(O)c34)C2)n1 (stereo not shown) [Compound 187, 3-(1-(3-(4-methyl-2H-1,2,3-triazol-2-yl)propyl)pyrrolidin-3-yl)-1H-indol-4-ol] | 8.38 | 63.7 | > 7.00 | 
Oc1cccc2[nH]cc(C3CCN(CCCn4ncc(C5CC5)n4)C3)c12 (stereo not shown) [Compound 188, 3-(1-(3-(4-cyclopropyl-2H-1,2,3-triazol-2-yl)propyl)pyrrolidin-3-yl)-1H-indol-4-ol] |  | 48.5 |  | pKi (5-HT2A receptor [2]): > 7.00; pEC50 (5-HT2A receptor [1]): 7.97
c1ccc2c(C3CCN(CCCn4nccn4)C3)n[nH]c2c1 (stereo not shown) [Compound 189, 3-(1-(3-(2H-1,2,3-triazol-2-yl)propyl)pyrrolidin-3-yl)-1H-indazole] |  |  | > 7.00 | 
COc1cc(CC(C)N)c(OC)cc1I (stereo not shown) [DOI, reference compound] |  |  |  | Total number of head-twitches within 60 minutes after dosing (Mice (strain C57BL/6) [3]; dose 3 mpk): significant head-twitch behavior
Cc1cc(CCN2CCC(c3c[nH]c4cccc(F)c34)CC2)n[nH]1 [reference compound] | < 4.00 | 0.9 |  | 
c1ccc2c(C3CCN(CCCn4nccn4)CC3)c[nH]c2c1 [reference compound] | < 4.00 | 25.5 |  | 

From patent EP4752142A1, “5-HT2A RECEPTOR AGONIST, AND PREPARATION METHOD THEREFOR AND USE THEREOF” (Innovstone Therapeutics Limited, priority 2023, dated 2025)
